{
  "source": "patent EP0623339B1",
  "about": "“Use of 4-,4- and 5-, or 4- and 6-substituted derivatives of resorcin in cosmetic or dermopharmaceutical compositions for depigmentation” (L'OREAL, priority 1993, dated 1994)",
  "tested_on": "tyrosinase de champignons",
  "test": "in vitro inhibition test of tyrosinase activity (dopachrome formation followed at 475 nm)",
  "format": "biochemical",
  "details": "lowering of maximal dopachrome formed (OD 475 nm at plateau) vs. no inhibitor; inhibitor at 50 % molaire relative to tyrosine; pH = 6,5; 25°C",
  "from_the_text": "Certains des composés de formule générale (I) ont été étudiés comparativement à l'hydroquinone à quantité molaire équivalente dans le test d'inhibition in vitro de l'activité de la tyrosinase.\nSelon ce test on suit par spectrométrie visible à 475 nm la quantité de dopachrome formée au cours de la chaîne de réactions de transformation de la tyrosine en mélanines. Ces réactions sont catalysées in vitro par la tyrosinase de champignons, en présence d'un co-substrat réducteur (par exemple la L-dopa en petite quantité) pour initier la réaction d'hydroxylation de la L-tyrosine en L-dopa, laquelle est ensuite oxydée catalytiquement en dopaquinone puis en dopachrome, produit intermédiaire avant les réactions d'oxydation non enzymatiques aboutissant à la formation des mélanines.\nOn mesure donc la concentration en dopachrome formé au cours du temps en présence et en absence de l'inhibiteur. […]\nOn exprime l'effet d'inhibition par l'abaissement de la quantité maximale de dopachrome formée (valeur de densité optique à 475 nm lue au plateau de la courbe) par rapport à la quantité obtenue en l'absence d'inhibiteur. […]\n• cuve de référence : 3 ml de A • cuve d'essai : 1 ml de B 0,1 ml de C 1,85ml de A + E • homogénéiser et équilibrer à 25°C • ajouter 0,05 ml de D • mélanger rapidement et observer la cinétique par la mesure de l'absorbance à 475 nm en fonction du temps.",
  "data": [
    {"smiles": "Oc1ccc(O)cc1", "note": "[hydroquinone]", "values": [
      {"measurement": "% d'inhibition", "value": -33, "unit": "%"}
    ]}
  ]
}
